Broadly, the viability is a read-out of living cells in per cent, often relative to untreated cells.

Each structure is given as a SMILES string.

For 79 molecules, viability results are on record in PMC12040169 (PLOS Biology, 2025).

A short description of the series: in vitro. The following applies: human, hela cells, % viability.

As for `C=CCn1c(SCc2nnc(-c3ccccc3)o2)nnc1C(O)c1ccccc1` (stereo not shown) [CBK267368], the viability at 28.5 h, 10 µM turned out to be 110%. Same read-out and setting: the same measure for `O=C(CCCOc1ccc(Cl)cc1Cl)Nc1c[nH]c(=O)[nH]c1=O` [CBK264235]: 113%; for `CCn1c(C(C)Oc2ccc(Cl)cc2)n[nH]c1=S` (stereo not shown) [CBK015099]: 108%; for `C[C@@H]1C(=O)O[C@H]2[C@H]1CC[C@@]1(C)Cc3sc(NC(=O)CCC(=O)O)nc3[C@@H](C)[C@H]21` [CBK289429]: 98.7%.

For `Cc1cc2nc(NS(C)(=O)=O)n(S(C)(=O)=O)c2cc1C` [CBK023112], the viability at 28.5 h, 10 µM came out at 106%. The same measure, in the same setting: the same measure for `Cc1nn(Cc2c(F)cccc2Cl)c(C)c1NC(=O)CCCC(=O)O` [CBK286838]: 108%; for `Cn1c(Sc2ccc(C(=O)O)cc2[N+](=O)[O-])nnc1-c1ccccc1` [CBK265047]: 103%; for `Cc1cccc(C)c1NC(=O)CC1Sc2ccccc2NC1=O` (stereo not shown) [CBK267160]: 97%. Still for that read-out and setting: the same measure for `CCc1cc(Br)ccc1S(=O)(=O)Nc1ccnn1CC` [CBK044900]: 92.7%; for `CCc1nnc(SCC(=O)Nc2cc(OC)ccc2OC)[nH]1` [CBK270167]: 85.1%. In the case of `CCC(Sc1ccc2nnc(-c3cccnc3)n2n1)C(=O)O` (stereo not shown) [CBK287623], the viability at 28.5 h, 10 µM turned out to be 110%. On the same count and under the same terms, the value for `Cc1ccc(Cl)cc1NC(=O)c1cc(NC(=O)C2C3C=CC(C3)C2C(=O)O)ccc1N1CCCCC1` (stereo not shown) [CBK268194] was 85.9%; that for `COc1ccccc1-c1ncc(OCC(F)(F)F)nc1NC(=O)c1ccco1` [CBK145277] was 98.3%; that for `O=C(c1sc2ccccc2c1C1CCN(Cc2ccccc2F)C1)N1CCOCC1` (stereo not shown) [CBK286260] was 103%. Turning to `COC(=O)c1cc(C)nc2sc(C)c(N)c12` [CBK115343], the viability at 28.5 h, 10 µM worked out at 85.8%. The same measure, in the same setting: the same measure for `Cc1ccccc1-n1c(=O)cc(N2CCN(c3ccc(F)cc3)CC2)[nH]c1=O` [CBK287508]: 95.1%; for `Clc1ccc2c(c1)OCC[C@@H]2Oc1cncc(N2CCNCC2)n1` [CBK172313G]: 86.2%. Same read-out and setting: the same measure for `COc1ccc(OCCNC(=O)c2ccccc2-n2cccc2)cc1` [CBK149592]: 95.6%. On the same count and under the same terms, the same measure for `COc1ccccc1CC(C)NC(=O)c1cc(C2CC2)nn1C` (stereo not shown) [CBK283290]: 83.8%. Turning to `COc1cccc(Nc2nnc(-c3cc4cc(OC)ccc4oc3=O)s2)c1` [CBK264432], the viability at 28.5 h, 10 µM was found to be 94.1%. Same read-out and setting: the value for `CCC#CC(=O)Nc1cncc(OC2CCNCC2)n1` [CBK026731T] was 93%. The same measure, in the same setting: the same measure for `O=C1N[C@@]2(CC3CCC2CC3C(=O)N2CCCC2)Nc2ccccc21` (stereo partly shown) [CBK284449]: 91.8%. Still for that read-out and setting: the same measure for `CC(NC(=O)CC1CCN(Cc2cccc(C(F)(F)F)c2)CC1)c1nc2ccccc2[nH]1` (stereo not shown) [CBK285952]: 104%; for `CCOc1cccc(-c2ccc(Nc3cccc(NC(=O)c4ccncc4)c3)nc2)c1` [CBK037739]: 49.4%; for `COc1cccc(COc2nccnc2/C=C/c2ccccc2)c1OC` [CBK106888]: 89.3%. Take `COC(=O)c1c(NC(=S)Nc2cn(C)nc2C(N)=O)sc2c1CCCCC2` [CBK266849]: the viability at 28.5 h, 10 µM worked out at 93.4%. On the same count and under the same terms, the value for `CCOc1cc(S(=O)(=O)NCCCN2CCOCC2)c(C)cc1C` [CBK268764] was 99%; that for `O=C(O)C1(NCc2ccccc2Cl)CCCCC1` [CBK287269] was 78.9%. Still for that read-out and setting: the value for `O=C1N=C(NC2CCCCCC2)SC1CC(=O)N1CCOC12CCCCC2` (stereo not shown) [CBK067355] was 94%; that for `COc1ccccc1/C=N/N=C(/Nc1ccc(C)cc1)c1nc2ccccc2s1` [CBK265051] was 124%. On the same count and under the same terms, the same measure for `CC(C)S(=O)(=O)N1CC2CCCC(O)(c3cccc(F)c3)C2C1` (stereo not shown) [CBK283109]: 109%. Consider `COc1cc(C=CC(=O)O)cc(S(=O)(=O)Nc2ccccc2C(=O)NCCc2ccccc2)c1OC` [CBK297487], for which the viability at 28.5 h, 10 µM is 99.5%. The same measure, in the same setting: the same measure for `CCOc1cc(C)c(-c2cc(N)[nH]n2)cc1OCC` [CBK288216]: 85.9%; for `CC(=O)Nc1ccc(-c2nc(-c3ccc(-c4ccccc4)cc3)c(-c3ccc(-c4ccccc4)cc3)[nH]2)cc1` [CBK262620]: 87.3%. On the same count and under the same terms, the same measure for `CCOC(=O)c1c(CN(C)C)n(-c2ccccc2)c2cc(Br)c(OC)cc12` [CBK115360]: 117%; for `O=C1NCCCc2nc(Nc3ccccc3)sc21` [CBK087091]: 83.8%; for `Cc1cnn(CC2CCCCN2CC(=O)NCc2ccccn2)c1` (stereo not shown) [CBK304041]: 110%. Turning to `COc1ccc(CN2C(=S)N(c3ccc(Cl)cc3)[C@H]3[C@@H]2[C@H]2OC(=O)[C@@H]3C[C@H]2O)cc1` [CBK288935], the viability at 28.5 h, 10 µM came out at 99.8%. On the same count and under the same terms, the value for `Cc1ccc(-c2ccc(N3CCCC(C(=O)O)C3)nn2)cc1C` (stereo not shown) [CBK300513] was 95.8%. The same measure, in the same setting: the same measure for `CS(=O)(=O)c1ccc(-n2nnnc2CN2CCC3(CCC3)C2)cc1` [CBK306262]: 79.6%; for `O=S(=O)(NCC(Sc1ccc(F)cc1)c1ccccc1)c1ccc(Cl)cc1` (stereo not shown) [CBK266306]: 96.8%; for `C=CCNC(=O)c1cnc(-c2ccc(Cl)cc2)c(-c2ccco2)c1` [CBK036738]: 90.6%. Still for that read-out and setting: the same measure for `Oc1ccc(/N=C/C=C/c2ccc(Cl)cc2Cl)cc1-c1nc2ccccc2s1` [CBK261242]: 107%.

Take `CSc1nc(NC(=O)CCCc2ccccc2)cc(N2CCNCC2)n1` [CBK050258T]: the viability at 28.5 h, 10 µM was found to be 111%. Same read-out and setting: the value for `Brc1cccc(NN=C2CCCC2)n1` [CBK006748] was 85.3%; that for `CC(C)C(=O)N1CCC[C@@H]2NC(=O)c3ccccc3OCC/C=C/C[C@@H]21` [CBK292064] was 101%; that for `COCCNc1nc(-c2ccc3ccccc3c2)cn2ccnc12` [CBK066138] was 103%. Same read-out and setting: the same measure for `O=C(NCCN1CCOCC1)C1CCN(c2nc3c(-c4ccccc4F)csc3c(=O)[nH]2)CC1` [CBK215442]: 104%.

With `Cc1cccc(NC(=S)NNC(=O)CCC(=O)O)c1` [CBK261542], the viability at 28.5 h, 10 µM is 85.1%.

Regarding `CCCN1CC(NS(=O)(=O)c2ccc(OC)c3c2CCCC3)CC1=O` (stereo not shown) [CBK307098], the viability at 28.5 h, 10 µM worked out at 79.7%. In the case of `Cc1ccc(-n2c(=O)[nH]cc(C(=O)Nc3ccc(C)c(F)c3)c2=O)cc1C` [CBK287550], the viability at 28.5 h, 10 µM was found to be 97.5%. With `Cc1nnc(SCc2cc(=O)[nH]c(N3CCN(C)CC3)n2)s1` [CBK270106], the viability at 28.5 h, 10 µM came out at 91.7%.

Take `COc1ccc(-c2coc3c(C)c4oc(=O)c(CC(=O)O)c(C)c4cc23)cc1` [CBK269403]: the viability at 28.5 h, 10 µM amounted to 105%. With `O=C(O)CCSc1nc(-c2ccccc2)c(-c2ccccc2)[nH]1` [CBK264228], the viability at 28.5 h, 10 µM turned out to be 109%.

For `OCCOc1nc2ccccc2s1` [CBK001812], the viability at 28.5 h, 10 µM was 97.2%. Same read-out and setting: the same measure for `CC1CCc2onc(C(=O)Nc3ccncc3)c2C1` (stereo not shown) [CBK288080]: 110%. On the same count and under the same terms, the value for `Cc1nc(-c2ccccc2)sc1CNC(=O)Cc1ccccc1F` [CBK092372] was 104%; that for `O=C(COc1ccc(Cl)cc1Cl)Nc1cccc(NC(=O)c2ccccc2Cl)c1` [CBK264726] was 105%. As to `O=C(O)c1cccc(NC(=O)C2CCCCC2C(=O)O)c1` (stereo not shown) [CBK261538], the viability at 28.5 h, 10 µM worked out at 96.6%. The same measure, in the same setting: the value for `Cc1nn(C)c(C)c1CN(C(=O)C(C)Oc1cccc(F)c1)C1CC1` (stereo not shown) [CBK281479] was 93.7%; that for `O=C(N1CCn2cnnc2C1)C1(c2ccccc2)CCCC1` [CBK283926] was 90.8%.

In the case of `Cn1nc(C2CCN(C(=O)c3ccccc3F)CC2)c2cccnc21` [CBK285019], the viability at 28.5 h, 10 µM amounted to 106%. Still for that read-out and setting: the same measure for `OCCNCc1cc(Br)ccc1OCc1ccc(F)cc1` [CBK266421C]: 96%; for `Cc1c(C(=O)Nc2ccc(S(=O)(=O)N(C)Cc3ccccc3)cc2)cccc1[N+](=O)[O-]` [CBK267534]: 109%. As to `CCNC(=O)Nc1ncc(-c2ccsc2)c2cccnc12` [CBK070686], the viability at 28.5 h, 10 µM was found to be 103%.

For `COCCNc1nc(-c2cccc(F)c2)cn2ccnc12` [CBK066465], the viability at 28.5 h, 10 µM is 98.4%. On to `O=S(=O)(Nc1ccccc1OC(F)(F)F)c1ccc(N2CCNCC2)c2ccccc12` [CBK003933C], for which the viability at 28.5 h, 10 µM amounted to 92.8%.

Take `O=[N+]([O-])c1ccc(CN2CCN(c3nccnc3OCc3cccnc3)CC2)cc1` [CBK083135T]: the viability at 28.5 h, 10 µM came out at 106%. Still for that read-out and setting: the value for `CCCNC(=O)CN(C)Cc1cn2cccc(C)c2n1` [CBK304800] was 85.2%.

On to `O=C1CN(C(=O)NC(c2ccccc2)c2ccccc2)CCN1` [CBK155853], for which the viability at 28.5 h, 10 µM worked out at 93.6%.

On to `CCOC(=O)c1cnn2c(O)cc(CN3CCCC3c3ccsc3)nc12` (stereo not shown) [CBK305647], for which the viability at 28.5 h, 10 µM was 96.1%. For the molecule `Cc1nc(C2(O)CCCN(C3CCCC3)CC2)sc1COc1ccc(Cl)cc1` (stereo not shown) [CBK285940], the viability at 28.5 h, 10 µM is 122%.

On to `Nc1ncc(-c2cccc3cccnc23)nc1N1CCC[C@@H]1CO` [CBK063470], for which the viability at 28.5 h, 10 µM amounted to 108%. The same measure, in the same setting: the same measure for `COc1ccccc1-c1nccnc1N1CCN(c2ccncc2)CC1` [CBK037081]: 87.8%; for `c1cnc(NCc2cc3n(n2)CCN(CC2CCCNC2)C3)nc1` (stereo not shown) [CBK306981]: 102%. The same measure, in the same setting: the same measure for `Cc1cc(C(F)F)n2nc(C(=O)NCc3ccccc3F)nc2n1` [CBK266228]: 97.2%. The same measure, in the same setting: the value for `Cc1cc(COc2nc3ccccc3nc2NCCC2=CCCCC2)no1` [CBK173982] was 115%.

With `O=C(Nc1cc([N+](=O)[O-])ccc1O)c1cccc(C(=O)Nc2cc([N+](=O)[O-])ccc2O)c1` [CBK261168], under “bulk resorufin, single well”, the viability at 28.5 h, 10 µM was found to be 102%.

For the molecule `CCN(CC)C(=O)Cn1nc(C)n2c(cc3occc32)c1=O` [CBK283620], the viability at 28.5 h, 10 µM came out at 86.7%.
